Several values for one entry are separate records, joined by “and”; a condition that tells them apart may be missing. Equal entries are not always repeated. Numbers after ± are expanded uncertainties.
Assay: cn = amount concentration of the nth substance listed, in mol/dm3
Details: 101 kPa, Liquid, c1 = 2

SMILES	viscosity (298.15 K)	viscosity (303.15 K)	viscosity (308.15 K)	viscosity (313.15 K)	viscosity (318.15 K)	viscosity (323.15 K)
[Cl-].[K+] [potassium chloride] + O	0.887 ± 0.022 mPa·s	0.8552 ± 0.022 mPa·s	0.7658 ± 0.02 mPa·s	0.6995 ± 0.018 mPa·s	0.6492 ± 0.017 mPa·s	0.6037 ± 0.016 mPa·s
O=[N+]([O-])[O-].[K+] [potassium nitrate] + O	0.9118 ± 0.023 mPa·s	0.8404 ± 0.021 mPa·s	0.7619 ± 0.02 mPa·s	0.6989 ± 0.018 mPa·s	0.64 ± 0.017 mPa·s	0.5929 ± 0.016 mPa·s and 0.5829 ± 0.016 mPa·s

From the NIST ThermoML archive (doi:10.1016/j.jct.2008.07.019)
